Measured values from PubChem BioAssay AID248 (DTP/NCI, 2004).
Several values for one entry are separate records, joined by “and”; a condition that tells them apart may be missing. Equal values may be shown once. Toxic doses and inconclusive results are not listed.

System: L1210 leukemia ip in BDF1 mice, survival T/C
Assay: NCI In Vivo Anticancer Drug Screen. Data for tumor model L1210 Leukemia (intraperitoneal) in B6D2F1 (BDF1) mice
Settings: endpoint: mean survival time, higher = longer survival
How it was run: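 Ratio derived from survival: compound-dosed mice over vehicle-dosed mice, all bearing a transplantable tumor.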

[1] = dose: 50.0 mg/kg/injection, schedule: Q01DX009 (ip), vehicle: saline with Tween-80
[2] = dose: 200.0 mg/kg/injection, schedule: Q01DX001 (ip), vehicle: saline
[3] = dose: 200.0 mg/kg/injection, schedule: Q01DX009 (ip), vehicle: saline with Tween-80
[4] = dose: 200.0 mg/kg/injection, schedule: Q04DX003 (ip), vehicle: saline
[5] = dose: 300.0 mg/kg/injection, schedule: Q01DX001 (ip), vehicle: saline
[6] = dose: 100.0 mg/kg/injection, schedule: Q04DX003 (ip), vehicle: Klucel (hydroxypropylcellulose) (HPC)
[7] = dose: 200.0 mg/kg/injection, schedule: Q04DX003 (ip), vehicle: Klucel (hydroxypropylcellulose) (HPC)
[8] = dose: 100.0 mg/kg/injection, schedule: Q01DX001 (ip), vehicle: saline
[9] = dose: 400.0 mg/kg/injection, schedule: Q01DX001 (ip), vehicle: saline
[10] = dose: 100.0 mg/kg/injection, schedule: Q04DX002 (ip), vehicle: saline with Tween-80
[11] = dose: 50.0 mg/kg/injection, schedule: Q04DX003 (ip), vehicle: Klucel (hydroxypropylcellulose) (HPC)
[12] = dose: 100.0 mg/kg/injection, schedule: Q01DX009 (ip), vehicle: saline
[13] = dose: 200.0 mg/kg/injection, schedule: Q01DX009 (ip), vehicle: saline
[14] = dose: 400.0 mg/kg/injection, schedule: Q01DX009 (ip), vehicle: saline

For CNS(=O)(=O)c1ncnc2nc[nH]c12, the T/C (dose: 3.0 mg/kg/injection, schedule: Q01DX Z (ip), vehicle: carboxymethylcellulose (CMC)) was 113 % of control, the T/C (dose: 6.0 mg/kg/injection, schedule: Q01DX Z (ip), vehicle: carboxymethylcellulose (CMC)) was 115 % of control and the T/C (dose: 12.0 mg/kg/injection, schedule: Q01DX Z (ip), vehicle: carboxymethylcellulose (CMC)) was 119 % of control. The T/C (dose: 22.0 mg/kg/injection, schedule: Q01DX Z (ip), vehicle: carboxymethylcellulose (CMC)) was 100 % of control, the T/C (dose: 25.0 mg/kg/injection, schedule: Q01DX Z (ip), vehicle: carboxymethylcellulose (CMC)) was 117 % of control and the T/C (dose: 33.0 mg/kg/injection, schedule: Q01DX Z (ip), vehicle: carboxymethylcellulose (CMC)) was 100 % of control. The T/C [1] was 115 % of control, the T/C (dose: 50.0 mg/kg/injection, schedule: Q01DX Z (ip), vehicle: carboxymethylcellulose (CMC)) was 121 % of control and the T/C (dose: 75.0 mg/kg/injection, schedule: Q01DX Z (ip), vehicle: carboxymethylcellulose (CMC)) was 121 % of control. The T/C (dose: 100.0 mg/kg/injection, schedule: Q01DX001 (ip), vehicle: acetone) was 100 % of control, the T/C (dose: 132.0 mg/kg/injection, schedule: Q01DX001 (ip), vehicle: saline) was 112 % of control and 88 % of control and the T/C (dose: 132.0 mg/kg/injection, schedule: Q01DX009 (ip), vehicle: saline with Tween-80) was 112 % of control. For the same compound, the T/C (dose: 132.0 mg/kg/injection, schedule: Q01DX009 (ip), vehicle: saline) was 110 % of control, the T/C (dose: 132.0 mg/kg/injection, schedule: Q04DX003 (ip), vehicle: saline) was 121 % of control and the T/C (dose: 200.0 mg/kg/injection, schedule: Q01DX001 (ip), vehicle: acetone) was 182 % of control. For the same compound, the T/C [2] was 103 % of control and 108 % of control, the T/C [3] was 162 % of control and the T/C [4] was 122 % of control. The T/C [5] was 101 % of control and 103 % of control and the T/C (dose: 300.0 mg/kg/injection, schedule: Q01DX009 (ip), vehicle: saline) was 117 % of control.
With O=C(O)COc1ccc(OCC(=O)O)cc1 the T/C (dose: 100.0 mg/kg/injection, schedule: Q01DX009 (ip), vehicle: Klucel (hydroxypropylcellulose) (HPC)) was 97 % of control, the T/C [6] was 95 % of control and the T/C (dose: 200.0 mg/kg/injection, schedule: Q01DX009 (ip), vehicle: Klucel (hydroxypropylcellulose) (HPC)) was 89 % of control. The T/C [7] was 95 % of control, the T/C (dose: 400.0 mg/kg/injection, schedule: Q01DX009 (ip), vehicle: Klucel (hydroxypropylcellulose) (HPC)) was 89 % of control and the T/C (dose: 400.0 mg/kg/injection, schedule: Q04DX003 (ip), vehicle: Klucel (hydroxypropylcellulose) (HPC)) was 92 % of control.
CC(=O)OC1CCC2(C)C(=CC=C3C2=CCC2(C)C(=O)CCC32)C1 (centres undefined) was tested, and the T/C [1] was 87 % of control, the T/C (dose: 100.0 mg/kg/injection, schedule: Q01DX009 (ip), vehicle: saline with Tween-80) was 90 % of control and the T/C [3] was 90 % of control.
In the case of CC(=O)c1ccc(CCCC2CCCC2)cc1, the T/C (dose: 100.0 mg/kg/injection, schedule: Q04DX002 (ip), vehicle: Klucel (hydroxypropylcellulose) (HPC)) is reported as 88 % of control, the T/C (dose: 200.0 mg/kg/injection, schedule: Q04DX002 (ip), vehicle: Klucel (hydroxypropylcellulose) (HPC)) is reported as 91 % of control and the T/C (dose: 400.0 mg/kg/injection, schedule: Q04DX002 (ip), vehicle: Klucel (hydroxypropylcellulose) (HPC)) is reported as 91 % of control.
With S=C([S][Sb]([c]1ccccc1)[c]1ccccc1)N(c1ccccc1)c1ccccc1 the T/C (dose: 5.0 mg/kg/injection, schedule: Q01DX001 (ip), vehicle: other) was 102 % of control, the T/C (dose: 10.0 mg/kg/injection, schedule: Q01DX001 (ip), vehicle: other) was 102 % of control and the T/C (dose: 20.0 mg/kg/injection, schedule: Q01DX001 (ip), vehicle: other) was 98 % of control. The T/C (dose: 40.0 mg/kg/injection, schedule: Q01DX001 (ip), vehicle: other) was 107 % of control.
With CCOC(=O)C(Cl)c1ccc(OC)cc1 (centres undefined) the T/C (dose: 100.0 mg/kg/injection, schedule: Q01DX009 (ip), vehicle: other) was 111 % of control, the T/C (dose: 200.0 mg/kg/injection, schedule: Q01DX009 (ip), vehicle: other) was 98 % of control and the T/C (dose: 400.0 mg/kg/injection, schedule: Q01DX009 (ip), vehicle: other) was 102 % of control.
For O=c1c(N=Nc2ccc(Br)cc2)c(O)n(-c2ccccc2)c(=S)n1-c1ccccc1, the T/C (dose: 100.0 mg/kg/injection, schedule: Q01DX001 (ip), vehicle: Klucel (hydroxypropylcellulose) (HPC)) was 105 % of control, the T/C (dose: 200.0 mg/kg/injection, schedule: Q01DX001 (ip), vehicle: Klucel (hydroxypropylcellulose) (HPC)) was 102 % of control and the T/C (dose: 400.0 mg/kg/injection, schedule: Q01DX001 (ip), vehicle: Klucel (hydroxypropylcellulose) (HPC)) was 102 % of control.
[O-][n+]1c2ccccc2nn1-c1ccccc1 was tested, and the T/C [8] was 95 % of control, the T/C [2] was 96 % of control and the T/C [9] was 97 % of control.
CC1CCCC2OC(=O)C(C(N)=O)C12 (centres undefined) was tested, and the T/C [8] was 95 % of control, the T/C [2] was 100 % of control and the T/C [9] was 97 % of control.
With Nc1ccccc1Sc1ccc2c3c(cccc13)C(=O)N(c1ccccc1)C2=O the T/C [10] was 87 % of control and the T/C (dose: 400.0 mg/kg/injection, schedule: Q04DX002 (ip), vehicle: saline with Tween-80) was 94 % of control.
In the case of O=C(Nc1ccc(Cl)c(Cl)c1)O/N=C\c1c(Cl)ccc([N+](=O)[O-])c1Cl, the T/C [8] is reported as 102 % of control, the T/C [2] is reported as 107 % of control and the T/C [9] is reported as 102 % of control.
For CNC(=O)O/N=C(/C)c1ccc(Cl)cc1, the T/C (dose: 100.0 mg/kg/injection, schedule: Q01DX001 (ip), vehicle: carboxymethylcellulose (CMC)) was 93 % of control, the T/C (dose: 200.0 mg/kg/injection, schedule: Q01DX001 (ip), vehicle: carboxymethylcellulose (CMC)) was 101 % of control and the T/C (dose: 400.0 mg/kg/injection, schedule: Q01DX001 (ip), vehicle: carboxymethylcellulose (CMC)) was 101 % of control.
Nc1nc(CCl)cs1 was tested, and the T/C (dose: 25.0 mg/kg/injection, schedule: Q04DX003 (ip), vehicle: Klucel (hydroxypropylcellulose) (HPC)) was 103 % of control, the T/C [11] was 95 % of control and the T/C [6] was 98 % of control and 100 % of control.
CCOP(=O)(OCC)Oc1c(Cl)c(Cl)c(OC(=O)Nc2cc(Cl)ccc2Cl)c(Cl)c1Cl was tested, and the T/C (dose: 25.0 mg/kg/injection, schedule: Q04DX002 (ip), vehicle: saline with Tween-80) was 90 % of control, the T/C (dose: 50.0 mg/kg/injection, schedule: Q04DX002 (ip), vehicle: saline with Tween-80) was 97 % of control and the T/C [10] was 94 % of control.
In the case of [O-]/[N+](=C\c1ccccc1)c1ccc(Cl)cc1, the T/C (dose: 75.0 mg/kg/injection, schedule: Q01DX001 (ip), vehicle: saline) is reported as 96 % of control, the T/C (dose: 150.0 mg/kg/injection, schedule: Q01DX001 (ip), vehicle: saline) is reported as 95 % of control and the T/C [5] is reported as 91 % of control.
CC(c1ccccc1C(=O)O)c1ccc(Br)c2ccccc12 (centres undefined) was tested, and the T/C [11] was 93 % of control, the T/C [6] was 108 % of control and the T/C [7] was 98 % of control.
For C=C(C)CC#N, the T/C (dose: 100.0 mg/kg/injection, schedule: Q04DX003 (ip), vehicle: saline) was 104 % of control and the T/C [4] was 109 % of control.
With O=S(O)c1ccccc1 the T/C [12] was 96 % of control, the T/C [13] was 105 % of control and the T/C [14] was 103 % of control.
For CCCCCCCCN(c1ccc(C(=O)NC(CCC(=O)OCC)C(=O)OCC)cc1)S(=O)(=O)c1ccc(C)cc1 (centres undefined), the T/C (dose: 12.5 mg/kg/injection, schedule: Q01DX009 (ip), vehicle: saline with Tween-80) was 95 % of control, the T/C (dose: 25.0 mg/kg/injection, schedule: Q01DX009 (ip), vehicle: saline with Tween-80) was 95 % of control and the T/C [1] was 95 % of control.
In the case of C=COP(OCCCC)OCCCC, the T/C (dose: 25.0 mg/kg/injection, schedule: Q04DX002 (ip), vehicle: saline) is reported as 94 % of control, the T/C (dose: 50.0 mg/kg/injection, schedule: Q04DX002 (ip), vehicle: saline) is reported as 91 % of control and the T/C (dose: 100.0 mg/kg/injection, schedule: Q04DX002 (ip), vehicle: saline) is reported as 93 % of control and 97 % of control. The T/C (dose: 200.0 mg/kg/injection, schedule: Q04DX002 (ip), vehicle: saline) was 91 % of control and the T/C (dose: 400.0 mg/kg/injection, schedule: Q04DX002 (ip), vehicle: saline) was 96 % of control.
In the case of O=C(O)C(CCc1ccccc1)(CCc1ccccc1)C(=O)O, the T/C [12] is reported as 95 % of control, the T/C [13] is reported as 94 % of control and the T/C [14] is reported as 111 % of control.
In the case of ClCc1cccc2c(CCl)cccc12, the T/C (dose: 50.0 mg/kg/injection, schedule: Q01DX001 (ip), vehicle: saline) is reported as 101 % of control and the T/C [8] is reported as 101 % of control.
For COc1ccc2c(c1C)C(=O)c1ccccc1C2, the T/C (dose: 100.0 mg/kg/injection, schedule: Q01DX001 (ip), vehicle: saline with Tween-80) was 93 % of control, the T/C (dose: 200.0 mg/kg/injection, schedule: Q01DX001 (ip), vehicle: saline with Tween-80) was 101 % of control and the T/C (dose: 400.0 mg/kg/injection, schedule: Q01DX001 (ip), vehicle: saline with Tween-80) was 90 % of control.
